A short description of this data set: Tail-bleeding assay. Conditions: 10 mg/kg, single intragastric dose 3 h before, n = 5 mice. The protocol: Mice were assigned randomly to […] and intragastrically administrated with a single dose of vehicle, isaridin E (12.5, 25, 50, or 100 mg/kg), or clopidogrel (10 mg/kg) at 3 h before the cutting-tail experiment. Tails were transected at a distal margin of 5 mm and were immediately immersed into 10 mL of saline at 37 °C. The bleeding time was recorded as when the observed bleeding ceased.

On to `COC(=O)[C@H](c1ccccc1Cl)N1CCc2sccc2C1` [clopidogrel, reference compound], for which the “tail bleeding time versus vehicle control” value was “significantly increased”.

For the origin of these results see article PMC8780978, “Antiplatelet and Antithrombotic Effects of Isaridin E Isolated from the Marine-Derived Fungus via Downregulating the PI3K/Akt Signaling Pathway” (Marine Drugs, 2021).
